Here are results for six compounds from patent publication US20260184663A1, “INDENE COMPOUNDS, PHARMACEUTICAL COMPOSITIONS THEREOF, AND THEIR THERAPEUTIC APPLICATIONS” (NucMito Pharmaceuticals co. Ltd., priority 2022, published 2026).

Type in all cases: cell-based
Assay [1] relates to alpha-smooth muscle actin (α-SMA). Briefly: Inhibition of TGF-β induced expression of alpha-smooth muscle actin (α-SMA) in CFSC cells (western blot). To be noted: compound at 10 μM, TGF-β (10 ng/mL), 24 hours, band intensity vs TGF-β only. In a few lines:
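Values are percent reduction of α-SMA band intensity relative to cells given TGF-β alone, quantified by Western blot densitometry with β-actin probed. Compound was applied at 10 μM alongside 10 ng/mL TGF-β to serum-free CFSC cultures for 24 h at 37 °C.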
In general terms: In western blotting, separated proteins are transferred to a membrane and probed.

Assay [2] concerns MDA-MB-231 (breast cancer). Description: Antiproliferative activity (CCK-8 cell viability), MDA-MB-231. Particulars: Homo sapiens, 72 h, read-out: Antiproliferative activity in cancerous cells, MDA-MB-231 (inhibition of cell growth); for inhibition at 3.3 µM: Compound concentration: 3.3 μM; for inhibition at 10 µM: Compound concentration: 10 μM. In a few lines:
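In this CCK-8 viability assay, MDA-MB-231 cells maintained in Dulbecco's modified Eagle's medium containing 10% fetal bovine serum were placed in 96-well plates (2,000-5,000 cells/well) and treated with compound for 72 h at 37° C. A 4 h incubation with 10 μL CCK-8 followed, plates were read at 450 nm, and viability was expressed against DMSO vehicle wells across replicates.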

For the next assay, the system named is HepG2 (liver cancer). Description: Antiproliferative activity (CCK-8 cell viability), HepG2. Particulars: Homo sapiens, 72 h, read-out: Antiproliferative activity in cancerous cells, HepG2 (inhibition of cell growth); for inhibition at 3.3 µM: Compound concentration: 3.3 μM; for inhibition at 10 µM: Compound concentration: 10 μM. In a few lines: (§1)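 Cells were seeded at 2,000-5,000/well (HeLa in MEM, HepG2 and SW480 in DMEM, A549 in F-12K, all with 10% FBS) and treated with compound at 3.3, 10 or 30 μM for 72 h at 37° C. CCK-8 was added for 4 h, absorbance was read at 450 nm, and viability was expressed relative to DMSO-treated wells.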

In the next assay the test system is SW480 (colon cancer). Briefly: Antiproliferative activity (CCK-8 cell viability), SW480. Particulars: Homo sapiens, 72 h, read-out: Antiproliferative activity in cancerous cells, SW480 (inhibition of cell growth); for inhibition at 3.3 µM: Compound concentration: 3.3 μM; for inhibition at 10 µM: Compound concentration: 10 μM. In a few lines:
as §1

Assay [3] concerns B16F10 (malignant melanoma). Briefly: Antiproliferative activity (CCK-8 cell viability), B16F10. To be noted: Mus musculus, 72 h, read-out: Antiproliferative activity in cancerous cells, B16F10 (inhibition of cell growth); for inhibition at 3.3 µM: B16-F10, Compound concentration: 3.3 μM; for inhibition at 10 µM: B16-F10, Compound concentration: 10 μM. In a few lines:
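Attached B16F10 cells in 96-well plates were incubated with compound at 37° C for 72 h, followed by 10 μL CCK-8 reagent per well and a further 4 h incubation. A multi-well plate reader measured absorbance at 450 nm. Percent viability across replicates was calculated against DMSO vehicle-treated cells.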

The subject of assay [4] is A431 (epidermoid carcinoma). Briefly: Antiproliferative activity (CCK-8 cell viability), A431. Particulars: Homo sapiens, 72 h, read-out: Antiproliferative activity in cancerous cells, A431 (inhibition of cell growth); for inhibition at 3.3 µM: A-431, Compound concentration: 3.3 μM; for inhibition at 10 µM: A-431, Compound concentration: 10 μM. The essentials: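 Cell viability of compound-treated A431 cells was measured with a Cell Counting Kit-8. Each well received 10 μL of CCK-8 after 72 h of compound exposure, followed by 4 h incubation at 37° C. and a 450 nm plate-reader measurement. Percent viability was calculated relative to DMSO controls across replicates.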

Assay [5] concerns A549 (lung adenocarcinoma). Briefly: Antiproliferative activity (CCK-8 cell viability), A549. Particulars: Homo sapiens, 72 h, read-out: Antiproliferative activity in cancerous cells, A549 (inhibition of cell growth); for inhibition at 3.3 µM: Compound concentration: 3.3 μM; for inhibition at 10 µM: Compound concentration: 10 μM. The essentials: as §1
A further assay concerns HeLa (cervical cancer). Briefly: Antiproliferative activity (CCK-8 cell viability), HeLa. To be noted: Homo sapiens, 72 h, read-out: Antiproliferative activity in cancerous cells, HELA (inhibition of cell growth); for inhibition at 3.3 µM: Compound concentration: 3.3 μM; for inhibition at 10 µM: Compound concentration: 10 μM. In a few lines:
as §1

Usually inhibition stands for the change of the read-out against control, counted positive when it falls.

As to `O=C(O)CC1=C(CC2CCCC2)/C(=C/c2ccc(COc3ccccc3)cc2)c2ccc(F)cc21` [A3, (Z)-2-(2-(Cyclopentylmethyl)-5-fluoro-1-(4-(phenoxymethyl)benzylidene)-1H-inden-3-yl)acetic acid], the inhibition at 10 µM is over 80% in assay [1]; at least 50% in assay [2]; at least 50% in the assay on HepG2 (liver cancer); at least 50% in the assay on SW480 (colon cancer); at least 50% in assay [3]; at least 50% in assay [4]. The inhibition at 10 µM (in assay [5]; in the assay with HeLa (cervical cancer)) was at least 50% throughout. For the same compound, the inhibition at 3.3 µM in assay [2] is at least 50%; in the assay with HepG2 (liver cancer), 30 to 50%; with SW480 (colon cancer), at least 50%; in assay [3], at least 50%; in assay [4], at least 50%; in assay [5], 30 to 50%. Further, the inhibition at 3.3 µM in the assay with HeLa (cervical cancer) is 30 to 50%.
For `CC1=C(CC(=O)O)c2c(F)ccc(F)c2/C1=C/c1ccc(C(C)C)cc1` [E12, (E)-2-(4,7-Difluoro-1-(4-isopropylbenzylidene)-2-methyl-1H-inden-3-yl)acetic acid], the inhibition at 10 µM in assay [1] is under 30%; in assay [2], at least 50%; with HepG2 (liver cancer), under 30%; with SW480 (colon cancer), 30 to 50%; in assay [3], at least 50%; in assay [4] it was 30 to 50%. Further, the inhibition at 10 µM (in assay [5]; with HeLa (cervical cancer)) was 30 to 50% throughout. The inhibition at 3.3 µM was at least 50% in assay [2]; under 30% in the assay on HepG2 (liver cancer); under 30% with SW480 (colon cancer); 30 to 50% in assay [3]; under 30% in assay [4]; under 30% in assay [5]. Further, the inhibition at 3.3 µM in the assay with HeLa (cervical cancer) is under 30%. Also, the inhibition at 30 µM is at least 50% in assay [2] (Compound concentration: 30 μM); 30 to 50% in the assay with HepG2 (liver cancer) (Compound concentration: 30 μM); at least 50% in the assay on SW480 (colon cancer) (Compound concentration: 30 μM); at least 50% in assay [3] (B16-F10, Compound concentration: 30 μM); at least 50% in assay [4] (A-431, Compound concentration: 30 μM); at least 50% in assay [5] (Compound concentration: 30 μM). In the assay with HeLa (cervical cancer) (Compound concentration: 30 μM), the inhibition at 30 µM was at least 50%.
`CC1=C(CC(=O)O)c2ccc(F)c(F)c2/C1=C\c1ccc(Oc2ccc(F)cc2)cc1` [C10, (Z)-2-(6,7-Difluoro-1-(4-(4-fluorophenoxy)benzylidene)-2-methyl-1H-inden-3-yl)acetic acid]: the inhibition at 10 µM in assay [1] is over 80%; in assay [2], at least 50%; in the assay on HepG2 (liver cancer), 30 to 50%; in the assay with SW480 (colon cancer) it was at least 50%; in assay [3] it was at least 50%; in assay [4] it was at least 50%. Besides, the values for the inhibition at 10 µM (in assay [5]; with HeLa (cervical cancer)) were 30 to 50% and at least 50%, respectively. In addition, the inhibition at 3.3 µM in assay [2] was 30 to 50%; with HepG2 (liver cancer), 30 to 50%; with SW480 (colon cancer), under 30%; in assay [3] it was 30 to 50%; in assay [4], under 30%; in assay [5], under 30%. Besides, the inhibition at 3.3 µM with HeLa (cervical cancer) was at least 50%.
As for `O=C(O)CC1=C(Cc2ccc(Oc3ccc(F)cc3)cc2)/C(=C/c2cccc(C(F)(F)F)c2)c2ccc(F)cc21` [A109, (Z)-2-(5-Fluoro-2-(4-(4-fluorophenoxy)benzyl)-1-(3-(trifluoromethyl)-benzylidene)-1H-inden-3-yl)acetic acid], the inhibition at 10 µM was over 80% in assay [1]; at least 50% in assay [2]; under 30% with HepG2 (liver cancer); under 30% in the assay with SW480 (colon cancer); at least 50% in assay [3]; at least 50% in assay [4]. The inhibition at 10 µM (in assay [5]; in the assay on HeLa (cervical cancer)) was at least 50% throughout. Further, the inhibition at 3.3 µM in assay [2] was at least 50%; in the assay with HepG2 (liver cancer), under 30%; in the assay on SW480 (colon cancer), under 30%; in assay [3], under 30%; in assay [4] it was 30 to 50%; in assay [5], at least 50%. Also, in the assay on HeLa (cervical cancer), the inhibition at 3.3 µM was under 30%.
As for `CC1=C(CCC(=O)O)c2ccccc2/C1=C\c1cccc(COc2ccccc2)c1` [B15, (Z)-3-(2-Methyl-1-(3-(phenoxymethyl)benzylidene)-1H-inden-3-yl)propanoic acid], the inhibition at 10 µM in assay [1] was under 30%; in assay [2], at least 50%; in the assay with HepG2 (liver cancer), at least 50%; with SW480 (colon cancer) it was at least 50%; in assay [3], at least 50%; in assay [4] it was at least 50%. Besides, the inhibition at 10 µM (in assay [5]; in the assay with HeLa (cervical cancer)) was at least 50% in each case. Besides, the inhibition at 3.3 µM is under 30% in assay [2]; 30 to 50% in the assay on HepG2 (liver cancer); at least 50% in the assay on SW480 (colon cancer); at least 50% in assay [3]; at least 50% in assay [4]; 30 to 50% in assay [5]. In addition, the inhibition at 3.3 µM in the assay on HeLa (cervical cancer) lay in the range of 30 to 50%.
In the case of `O=C(O)CC1=C(Cc2ccc(Oc3ccc(F)cc3)cc2)/C(=C/c2cccc(COc3ccccc3)c2)c2ccc(F)cc21` [A101, (Z)-2-(5-Fluoro-2-(4-(4-fluorophenoxy)benzyl)-1-(3-(phenoxymethyl)-benzylidene)-1H-inden-3-yl)acetic acid], the inhibition at 10 µM is over 80% in assay [1]; at least 50% in assay [2]; at least 50% with HepG2 (liver cancer); at least 50% with SW480 (colon cancer); at least 50% in assay [3]; at least 50% in assay [4]. Besides, the inhibition at 10 µM (in assay [5]; in the assay on HeLa (cervical cancer)) was at least 50% in each case. Moreover, the inhibition at 3.3 µM (in assay [2]; in the assay with HepG2 (liver cancer); in the assay with SW480 (colon cancer); in assay [3]; in assay [4]; in assay [5]) was at least 50% in each case. Moreover, the inhibition at 3.3 µM with HeLa (cervical cancer) is at least 50%.
